Measurements taken from patent US12617807B2, “Long lasting opioid reversal using hydrogen peroxide-induced release in blood” (University of Cincinnati, priority 2021, dated 2026).
Converted amounts (≈) assume the structure as drawn.

Tests used:
[1] = test system: 4-NHE (marker of ROS damage); experiment: ROS changes in blood of mice, ELISA for 4-NHE; details: for effect on ROS levels: injected together with morphine
Description: This was accomplished using an ELISA assay for 4-NHE that is a marker of ROS damage. See FIG. 9A for an illustration of the process. After a short period, serum was collected and quantification of 4-NHE against spiked blood standards was accomplished using an appropriate antibody.

[2] = test system: opioid-induced respiratory failure and death; experiment: rescue of mice from lethal dose of morphine (survival); assay type: in vivo
Description: Experiments were conducted to determine if NPD-2 can rescue a mouse from opioid-induced respiratory failure and death. Mice were administered a lethal dose of morphine by injection intraperitoneally (IP, 400 mg/kg). […] A survival percentage was calculated and graphed.

[3] = in vivo; cited from earlier work
renarcotization = experiment: simulated renarcotization, supplemental opioid dose after rescue; details: for survival (rescue rate) after initial opioid overdose: initial overdose 400 mg/kg
Description: Experiments were conducted to examine the effect of the prodrug of the present invention in a simulated renarcotization situation.

[4] = max solubility in 1×PBS, 20% PEG400; assay type: physicochemical; details: 1×PBS with 20% PEG400, aqueous with cosolvent or surfactant or cyclodextrin
[5] = naloxone in serum of injected mice by LCMS; assay type: in vivo
Description: After 30 minutes the mice were sacrificed. Blood was harvested and allowed to coagulate. Serum was harvested. A small amount of naloxone-D5 was spiked in, 9 vol of MeOH were added, and cooled for 30 min. After centrifugation the supernatant from each sample was dried and submitted to LCMS. […] FIG. 7 is a graph showing the results of the experiment.
Another experiment was conducted following the methodology of Example 1, except the mice were sacrificed at 2 hours instead of 30 minutes. FIG. 8 is a graph showing the results of the experiment.

[6] = 6 mg/kg IP 15 min after morphine 400 mg/kg IP
[7] = 2 mg/kg IP 15 min after morphine 400 mg/kg IP
[8] = 4 mg/kg IP 15 min after morphine 400 mg/kg IP
[9] = 7 mg/kg IP 15 min after morphine 400 mg/kg IP
[10] = 15 mg/kg IP 15 min after morphine 400 mg/kg IP

## CN1CC[C@]23c4c5ccc(O)c4O[C@H]2[C@@H](O)C=C[C@H]3[C@H]1C5 [morphine, reference compound]
[1]; mouse serum, compound alone
  increase of ROS (4-NHE): more than 10 fold
[2]; morphine 400 mg/kg IP alone
  # dead: 2
  Survival percent: 0%
  Survival rate: 0

## C=CCN1CC[C@]23c4c5ccc(O)c4O[C@H]2C(=O)CC[C@@]3(O)[C@H]1C5 [naloxone, reference compound]
[1]
  effect on ROS levels: reduces the ROS levels back to saline treated levels
[2]; [6]
  # dead: 1
  Survival percent: 75%
  Survival rate: 0.75
[3]
  metabolic stability: metabolically instable
renarcotization; 6 mg/kg
  survival (rescue rate) after initial opioid overdose: 80%

## C=CCN1CCC23c4c5ccc(OCc6ccc(B(O)O)cc6)c4O[C@@H]2C(=O)CC[C@@]3(O)C1C5 (some centres unmarked) [PS-NPD-2]
[4]
  solubility: ~50 mg/mL (≈ 108 mM)
[5]; inferred from 2 hour naloxone level in mice
  half-life: potentially longer half-life
[5]; mice, 30 minutes after injection, LCMS
  naloxone concentration in blood/serum: higher concentrations of naloxone
[5]; mice, 2 hours after injection, LCMS
  naloxone in blood compared to naloxone: more naloxone in mice blood compared to naloxone
[1]
  effect on ROS levels: reduces the ROS levels back to saline treated levels
[2]; [7]
  # dead: 8
  Survival percent: 0%
  Survival rate: 0
[2]; [8]
  # dead: 1
  Survival percent: 0%
  Survival rate: 0
[2]; [9]
  # dead: 4
  Survival percent: 0%
  Survival rate: 0
[2]; [10]
  # dead: 1
  Survival percent: 87.5%
  Survival rate: 0.875
renarcotization; 15 mg/kg
  survival (rescue rate) after initial opioid overdose: 80%
renarcotization; prodrug 15 mg/kg vs naloxone 6 mg/kg, supplemental opioid dose 25 mg/kg, N=8 each group
  number of surviving animals after supplemental opioid: higher number of surviving animals than naloxone
